In brackets after ≈: the same amount, converted by molar mass. Where two headings read alike, the source gives them in different places.

One series can be described thus: DHM solubility in water. Format: physicochemical.
The conditions of series [1]: at 25° C.; background; cited from earlier work.
A short description of a further series: physchem. The conditions noted are these: 25° C.
For series [2] the following is noted: in words; cited from earlier work.
For series [3] the following is noted: cited from earlier work.

In general, solubility refers to the dissolved amount per volume that the medium holds. Regarding `O=C1c2c(O)cc(O)cc2O[C@H](c2cc(O)c(O)c(O)c2)[C@H]1O` [DHM, (2R,3R)-3,5,7-trihydroxy-2-(3,4,5-trihydroxyphenyl)-2,3-dihydrochromen-4-one], the solubility in “DHM solubility in water” (100° C. (hot water)) is 15500 µg/mL (≈ 48400 µM); in the series “DHM solubility in water” (water, 25 °C, water, 25° C. (room temperature), read-out: Solubility), 700 µg/mL (≈ 2190 µM); in “DHM solubility in water” (water, 100 °C, water, 100° C. (hot water), read-out: Solubility), 16000 µg/mL (≈ 50000 µM); in series [1], 200 µg/mL (≈ 625 µM); in the series “physchem”, 700 µg/mL (≈ 2190 µM).

Take `OC[C@H]1O[C@H](O[C@]2(CCl)O[C@H](CCl)[C@@H](O)[C@@H]2O)[C@H](O)[C@@H](O)[C@H]1Cl` [sucralose]: in series [2], the solubility in water result was “freely soluble”.

`OC[C@H]1O[C@@H]2O[C@H]3[C@H](O)[C@@H](O)[C@@H](O[C@H]4[C@H](O)[C@@H](O)[C@@H](O[C@H]5[C@H](O)[C@@H](O)[C@@H](O[C@H]6[C@H](O)[C@@H](O)[C@@H](O[C@H]7[C@H](O)[C@@H](O)[C@@H](O[C@H]1[C@H](O)[C@H]2O)O[C@@H]7CO)O[C@@H]6CO)O[C@@H]5CO)O[C@@H]4CO)O[C@@H]3CO` [α-Cyclodextrin, α-cyclodextrin]: the “pKa value (25° C.)” value in series [3] is listed as 12.331.

On to `OC[C@H]1O[C@@H]2O[C@H]3[C@H](O)[C@@H](O)[C@@H](O[C@H]4[C@H](O)[C@@H](O)[C@@H](O[C@H]5[C@H](O)[C@@H](O)[C@@H](O[C@H]6[C@H](O)[C@@H](O)[C@@H](O[C@H]7[C@H](O)[C@@H](O)[C@@H](O[C@H]8[C@H](O)[C@@H](O)[C@@H](O[C@H]1[C@H](O)[C@H]2O)O[C@@H]8CO)O[C@@H]7CO)O[C@@H]6CO)O[C@@H]5CO)O[C@@H]4CO)O[C@@H]3CO` [β-Cyclodextrin, β-cyclodextrin], for which the “pKa value (25° C.)” value in series [3] is listed as 12.202.

These data come from patent US20200246485A1, “METHOD FOR GENERATING A DIHYDROMYRICETIN (DHM) FORMULATION” (82 LABS INC, priority 2019, published 2020).
